From patent publication US20250221968A1, “TREATMENTS AND METHODS FOR INCREASING DOPAMINE” (Oxford University Innovation Limited, priority 2022, published 2025) come the findings set out here.

SMILES strings stand for the structures. Entries after “also recorded” stand apart in the source; their conditions may differ.

The test system of assay [1] is nAChRs. In words: Calcium imaging of GCaMP6f in DA axons in DLS, ex vivo slices of DAT-Cre:Ai95D mice. It counts as cell-based, mouse. The following applies: DHβE 1 μM. As to the method: As in a previous study^21, an Olympus BX51WI microscope equipped with a OptoLED Lite system (CAIRN Research), Prime Scientific CMOS (sCMOS) Camera (Teledyne Photometrics), and a ×40/0.8 NA water-objective (Olympus UK) was used for wide-field fluorescence imaging of GCaMP6f in dopaminergic axons in DLS in ex vivo slices in response to single and trains (4 pulses, 100 Hz) of electrical stimulus pulses. Images were acquired at 16.6 Hz frame rate every 2.5 min using Micro-Manager 1.4, with stimulation and recording synchronised using custom-written procedures in Igor Pro 6 (WaveMetrics) and an ITC-18 A/D board (Instrutech). Image files were analysed with Matlab R2019b and Fiji 1.5. The inventors extracted fluorescence intensity from the region of interest (ROI) and from an equal background area where there was no GCaMP6f expression (on the stimulating electrode). After background subtraction, the Ca^2+ transients were bleach-corrected by fitting an exponential curve function through both the baseline (2 s prior to stimulation) and the last 1 s in a 7.2 s recording window. The order of single and train stimulations was alternated and equally distributed and data were collected in duplicate before and after a change in extracellular experimental condition. Data are expressed as ΔF/F where F is the fitted curve. […]

Assay [2] relates to nAChRs. In words: Ex vivo slice voltammetry (FCV): [DA]o evoked by light pulse after prior electrical stimulus, striatal slices from DAT-Cre mice. Format: cell-based, mouse. The following applies: DHβE 1 μM. The text has this: (§1) Stimulations were timed to avoid FCV scans.
The Inventors also explored whether prior ChI activation limits subsequent DA release when driven by targeted optogenetic activation of DA axons (DADA). The Inventors used an electrical stimulus to initially drive DA release (DADA+DAChI) and then assessed DADA driven by a subsequent light activation of ChR2-expressing DA axons in ex vivo striatal slices from DAT-Cre mice (FIG. 2a,b). […] For inter-stimulus intervals <100 ms (DLS) or <50 ms (NAcc), this depression was relieved when a nAChR antagonist was present (DHβE, 1 μM).

Assay [3] deals with T1, D2 receptors (Mus musculus, UniProt P61168).
T1 construct: striatal slices from ChAT-Cre: Ai32 mice; from tissue; host or cells: acute striatal slices (DLS) of ChAT-Cre:Ai32 mice
T1 sequence (P61168 whole entry): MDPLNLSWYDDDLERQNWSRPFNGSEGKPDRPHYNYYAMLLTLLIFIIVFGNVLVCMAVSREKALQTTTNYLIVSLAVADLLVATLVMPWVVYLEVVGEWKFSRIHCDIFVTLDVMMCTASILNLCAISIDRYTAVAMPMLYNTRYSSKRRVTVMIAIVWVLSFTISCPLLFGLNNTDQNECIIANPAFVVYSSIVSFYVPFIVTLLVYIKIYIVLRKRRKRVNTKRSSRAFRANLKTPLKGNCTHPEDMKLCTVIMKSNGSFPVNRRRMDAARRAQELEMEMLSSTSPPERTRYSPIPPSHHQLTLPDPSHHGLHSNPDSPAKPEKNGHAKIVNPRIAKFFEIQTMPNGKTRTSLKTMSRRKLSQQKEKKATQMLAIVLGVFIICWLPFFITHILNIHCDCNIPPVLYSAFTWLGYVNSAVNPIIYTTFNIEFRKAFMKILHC
The assay is described as follows: Ex vivo slice voltammetry: DA release after light activation of ChIs, 1p vs 3p Estim, ChAT-Cre:Ai32 slices, D2 antagonism. It counts as cell-based. The following applies: DLS, L-741,626 1 μM.
Description: as §1

The test system of assay [4] is muscarinic receptors. The following applies: DLS, atropine 2 μM.
Description: For fast-scan cyclic voltammetry (FCV) in acute coronal slices, animals were anaesthetised with isoflurane. Brains were quickly removed into ice-cold, high Mg^2+ cutting solution containing in mM: 85 NaCl, 25 NaHCO3, 2.5 KCl, 1.25 NaH2PO4, 0.5 CaCl2, 7 MgCl2, 10 glucose, 65 sucrose. Brains were then blocked, and 300 μm coronal slices were cut on a vibratome (Leica VT1200S) between +1.5 to +0.5 mm from bregma containing caudate-putamen and nucleus accumbens. Slices recovered at 32° C. for 30-40 min after dissection and were subsequently kept at room temperature. Slices were maintained and recorded in artificial cerebrospinal fluid (aCSF) containing in mM: 130 NaCl, 25 NaHCO3, 2.5 KCl, 1.25 NaH2PO4, 2.5 CaCl2), 2 MgCl2, 10 glucose. The aCSF was saturated with 95% O2/5% CO2; recordings were made at 32-33° C. Extracellular DA concentration ([DA]o) was measured using FCV with 7 μm-diameter carbon fiber microelectrodes (CFMs; tip length 50-100 μm) and a Millar voltammeter (Julian Millar, Barts and the London School of Medicine and Dentistry) as previously^55. […]
The Inventors tested whether the DA release dynamics at the timepoints of ChI rebound activity are consistent with nAChR desensitisation. […] As a potential readout of the timecourse of nAChR desensitisation, the Inventors explored how the difference in [DA]o evoked by triplet versus single pulses (100 Hz) varied over time. […]
Assay [5] deals with nAChRs. In words: Anesthetised in vivo voltammetry in DLS. Conditions: urethane-anesthetised wild-type mice, mecamylamine 2 mg/kg i.p. per FIG. 4 legend. The arrangement: species or system mouse. As to the method: Wild type mice were anesthetised with urethane (1.4-1.9 g/kg, i.p.; Biolab), supplemented with additional urethane (0.2 g/kg) every 1-2 hr as required. All wounds and pressure points were infiltrated with bupivacaine (0.5%). Upon reaching surgical anaesthesia, the head was fixed in a stereotaxic frame (Kopf, USA). Core temperature was maintained at 35-36° C. using a homeothermic blanket and monitored via a rectal probe (TR-100, Fine Science Tools). A round piece of skull overlying the left hemisphere was removed to target the DLS (AP+1.0 mm, ML 1.6 mm, DV 2.2 mm to Bregma). A stimulating and recording array consisting of a carbon-fiber microelectrode and a bipolar stimulating electrode (MS303/3-A/SPC, P1 Technology) was positioned in the DLS. The Ag/AgCl reference electrode was implanted in another part of the forebrain. […] The location of the tip of FCV electrode was confirmed histologically.
For striatal electrical stimulation, 0.65 mA current (200 μs) was delivered through a bipolar stimulating electrode (0.005 inch, MS303/3-A/SPC, P1 Technologies). The stimulating electrode tips were separated by ˜500 μm and were glued to the FCV recording electrode to fix the tip of the FCV electrode between the two stimulating poles. […]

In assay [6] the test system is nAChRs. In words: 6-OHDA lesioning and cylinder test (single paw reaching), mouse model of PD. Format: in vivo. Conditions: unilateral 6-OHDA lesioned mice, 10 μg into lesioned striatum, 10 min after injection. The protocol: 6-OHDA Lesioning and Reaching Task: On the lesioning day, 6-hydroxydopamine was injected into the right dorsolateral striatum through the pre-implanted cannula (1 μl of a 0.9% saline solution containing 4 μg/μL 6-OHDA (Sigma-Aldrich) and 0.02% acetic acid) over 5 min. On the testing day, mecamylamine (10 μg/side) was injected via the cannula in a volume of 0.5 μl over 1 min into the lesioned (right) striatum. Animals were sacrificed immediately after behavioural testing. The 6-OHDA-induced loss of dopamine axons was confirmed by the ˜50% decrease of fluorescence intensity of TH staining in slices compared to the contralateral DLS which was measured with ImageJ (1.52p). The anterior commissure used as 0% background fluorescence. Animals were briefly sedated with isoflurane during the injection of 6-OHDA and mecamylamine.
A cylinder test was performed before and 10 min after 6-OHDA injection to confirm an acute effect of 6-OHDA. After one day of […], the test was performed again before and 10 min after mecamylamine injection. No habituation of the mice to the cylinder was conducted. During the test, mice were individually placed into a glass cylinder (diameter 19 cm, height 25 cm). […] Only wall touches with a single paw, ipsilateral or contralateral forelimb, were counted in the analysis. Data are contralateral touches expressed as a percentage of total number of single-paw touches. […]

The subject of assay [7] is nAChRs. In words: Conditioned place preference testing after bilateral dorsal striatal infusion. Conditions: freely moving mice, 10 μg/side bilateral dorsal striatum, two days of conditioning. Format: in vivo, mouse. The source says: Cannulae Placements: Male C57BL/6N mice (42-50 days) were anesthetised with isoflurane (5% induction; 1.5-2% maintenance) and placed on a stereotaxic frame for surgery. Bilateral injection needles (O.D. 0.21 mm, I.D. 0.11 mm, RWD, China) with the guide cannula (O.D. 0.41 mm, I.D. 0.25 mm, RWD, China) were implanted to the dorsal striatum either vertically or at a small angle from the vertical, with the tip of each cannula aimed at coordinates: AP+1.0 mm; ML+/−1.6 mm to bregma; DV-2.4 mm (from dura). Mice recovered for three days after surgery.
Conditioned Place Preference Testing: In CPP experiments, mice were placed in a 40 cm×40 cm transparent plexiglass arena which was divided into two equal chambers separated by doorway. The chambers were decorated with either horizontal or vertical stripes. The movement of animals was recorded and analysed with Smart V3.0 tracking software (Panlab, Spain).
On day 1, mice were allowed to freely shuttle between two chambers to assess place preference at baseline, expressed as % time spent in right chamber. […] On day 4, the post-conditioning chamber preference was calculated as the % of time spent in the right mecamylamine-associated chamber compared to on pre-conditioning day 1. […]

With `CO[C@H]1CC=C2CCN3CCC4=C(CC(=O)OC4)[C@]23C1` [DHβE, Dihydro-β-erythroidine], the “axonal GCaMP6f fluorescence for a 4-pulse train (100 Hz) compared to a single pulse” value in assay [1] is “markedly greater”. Besides, the “depression of [DA]o evoked by a subsequent light pulse after an electrical stimulus” value in assay [2] (DLS, inter-stimulus intervals <100 ms) is “relieved”; in assay [2] (NAcc, inter-stimulus intervals <50 ms), “relieved”.
As to `OC1(c2ccc(Cl)cc2)CCN(Cc2c[nH]c3ccccc23)CC1` [L-741,626], in assay [3], the “dynamic DA release response after light activation of ChIs (100-400 ms interval)” value was “persists”.
On to `CN1[C@@H]2CC[C@H]1C[C@@H](OC(=O)C(CO)c1ccccc1)C2` (some centres unmarked) [atropine], for which, in assay [4], the “dynamic DA release response after light activation of ChIs (100-400 ms interval)” value was “persists”.
Turning to `CNC1(C)C2CCC(C2)C1(C)C` (centres unmarked) [mecamylamine], in assay [5], the “[DA]o evoked by local striatal stimulation with brief electrical pulse trains” value is recorded as “significantly increased”. The “motor deficits: contralateral forelimb single-paw touching in cylinder test” value in assay [6] is given as “reduces deficits; also recorded: remediated these motor deficits”. Further, the “conditioned-place preference for the drug-conditioned chamber” value in assay [7] is reported as “developed a conditioned-place preference”.
